Assay results taken from the supplement of paper PMC10307832.

Assays:
Assay in all cases: relative viability (nuclei count vs DMSO), 5 days (fraction); higher = more cells survive
[1] = compound: C[C@@H](C(=O)N[C@@H](C1CCCCC1)C(=O)N2CCC[C@H]2C(=O)N[C@@H]3[C@@H](CC4=CC=CC=C34)OCC#CC#CCO[C@@H]5CC6=CC=CC=C6[C@@H]5NC(=O)[C@@H]7CCCN7C(=O)[C@H](C8CCCCC8)NC(=O)[C@H](C)NC)NC [AZD5582] + Cc1nc(Nc2ncc(C(=O)Nc3c(C)cccc3Cl)s2)cc(N2CCN(CCO)CC2)n1 [Dasatinib] (partner 0.075 µM)
How it was run: (§1)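 Lung cancer cell lines in 1536-well plates were dosed by pin tool the day after seeding, either with one drug alone or with a fixed anchor-drug dose plus five library-drug doses (not always all listed) in √10 steps. After 5 days, cells were fixed and their nuclei stained in one step (final 0.05% Triton X-100, 1% formaldehyde, 1 ug/ml Hoechst), then counted on 4× images. Relative viability is the nuclei count in treated wells divided by that in vehicle wells. Values are medians of duplicate plates.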

[2] = compound: Cn1nnc2c(C(N)=O)ncn2c1=O [Temozolomide] + CS(=O)(=O)N1CCN(Cc2cc3nc(-c4cccc5[nH]ncc45)nc(N4CCOCC4)c3s2)CC1 [Pictilisib] (partner 1 µM)
How it was run: as §1

[3] = compound: Cn1nnc2c(C(N)=O)ncn2c1=O [Temozolomide] + CC(=O)Nc1cccc(-n2c(=O)n(C3CC3)c(=O)c3c(Nc4ccc(I)cc4F)n(C)c(=O)c(C)c32)c1 [Trametinib] (partner 0.02 µM)
How it was run: as §1

[4] = compound: Cn1nnc2c(C(N)=O)ncn2c1=O [Temozolomide] + COc1cc2c(Oc3ccc(NC(=O)C4(C(=O)Nc5ccc(F)cc5)CC4)cc3F)ccnc2cc1OCCCN1CCOCC1 [Foretinib] (partner 0.25 µM)
How it was run: as §1

Cell Line	relative viability ([1]; first compound 0.001581 µM)	relative viability ([1]; first compound 0.005 µM)	relative viability ([1]; first compound 0.01581 µM)	relative viability ([1]; first compound 0.05 µM)	relative viability ([2]; first compound 0.2 µM)	relative viability ([2]; first compound 0.6325 µM)	relative viability ([2]; first compound 2 µM)	relative viability ([2]; first compound 6.325 µM)	relative viability ([2]; first compound 20 µM)	relative viability ([3]; first compound 0.2 µM)	relative viability ([3]; first compound 0.6325 µM)	relative viability ([3]; first compound 2 µM)	relative viability ([3]; first compound 6.325 µM)	relative viability ([3]; first compound 20 µM)	relative viability ([4]; first compound 0.2 µM)	relative viability ([4]; first compound 0.6325 µM)	relative viability ([4]; first compound 2 µM)	relative viability ([4]; first compound 6.325 µM)	relative viability ([4]; first compound 20 µM)
NCI-H1734	0.468	0.548	0.434	0.664	0.508	0.418	0.475	0.429	0.426	0.722	0.694	0.661	0.678	0.692	0.874	0.929	0.959	0.754	0.859
NCI-H1755	0.398	0.456	0.356	0.363	0.507	0.447	0.462	0.413	0.379	0.81	0.761	0.718	0.664	0.549	0.979	0.93	0.908	0.873	0.722
NCI-H1793	0.32	0.429	0.292	0.261	–	0.294	0.286	0.292	0.309	–	0.463	0.465	0.335	0.414	–	0.583	0.935	0.432	0.615
NCI-H1915	0.324	0.339	0.267	0.328	1.11	0.914	0.962	0.468	0.326	0.29	0.288	0.32	0.24	0.201	1.11	1.04	1	0.733	0.429
NCI-H1944	0.244	0.228	0.227	0.238	0.366	0.352	0.363	0.346	0.342	0.367	0.402	0.435	0.426	0.362	0.756	0.922	0.847	0.875	0.795
NCI-H1975	0.322	0.447	0.428	0.408	0.272	0.308	0.311	0.302	0.311	0.339	0.31	0.371	0.373	0.413	0.997	0.936	1.09	0.917	0.931
NCI-H1993	0.634	0.576	0.557	0.573	0.853	0.819	0.871	0.826	0.834	0.429	0.61	0.473	0.455	0.552	0.81	0.722	0.807	0.72	0.672
NCI-H2009	0.297	0.382	0.268	0.307	0.969	0.891	0.893	0.638	0.87	0.279	0.273	0.389	0.268	0.265	1.23	1.21	1.24	1.2	1.3
NCI-H2023	0.521	0.581	0.553	0.49	0.254	0.225	0.248	0.207	0.265	0.568	0.635	0.468	0.497	0.518	0.825	0.749	0.847	0.68	0.848
NCI-H2085	0.265	0.366	0.282	0.355	0.452	0.434	0.551	0.453	0.442	0.527	0.438	0.621	0.513	0.581	0.847	1.04	1.05	0.939	0.749
NCI-H2087	0.7	0.915	0.848	0.945	1.08	0.858	0.927	0.895	0.851	0.209	0.213	0.255	0.204	0.172	1.23	1.16	1.19	1.23	1.04
NCI-H2126	0.61	0.678	0.555	0.684	0.475	0.554	0.489	0.511	0.457	0.561	0.588	0.624	0.555	0.623	1.04	1.3	1.23	1.38	1.27
NCI-H2170	0.494	0.571	0.558	0.471	–	0.38	0.361	0.289	0.23	–	0.984	0.902	0.876	0.348	–	1.01	1.05	0.993	0.526
NCI-H2228	0.437	0.506	0.478	0.139	0.354	0.36	0.227	0.234	0.47	0.286	0.617	0.432	0.459	0.537	1.05	1.05	0.854	0.691	0.961
NCI-H2347	0.304	0.663	0.341	0.303	0.624	0.863	0.861	0.649	0.502	0.26	0.291	0.28	0.289	0.244	1.11	1.03	1.42	0.773	0.982
NCI-H2405	0.199	0.24	0.155	0.226	0.392	0.434	0.487	0.338	0.465	0.585	0.699	0.798	0.569	0.597	0.992	1.07	1.09	1.01	0.994
NCI-H3122	0.729	0.707	0.802	0.185	0.521	0.657	0.59	0.57	0.553	0.222	0.291	0.246	0.251	0.242	0.915	0.924	1.07	1	0.946
